Assay results as given in PubChem BioAssay AID2305 (GlaxoSmithKline (GSK), 2010).
Values joined by “and” are separate entries in the source; they are usually repeats but may differ in a detail not shown here. Identical values can stand only once.

What follows are molecules tested on P. falciparum 3D7 growth, pLDH absorbance (assay: blood-stage malaria parasite growth potency – strain 3D7, dose response (AID 2305)).

Row | Structure (SMILES) | IC50
1 | NC(=O)Nc1ccc2cn[nH]c2c1 | 210 nM
2 | CN1CCCC(CN2CCN(Cc3cccc(-c4ccc(-c5nc6ccccc6[nH]5)s4)c3)CC2)C1 (stereo not given) | 150 nM
3 | CC(=O)N(Cc1ccccc1-c1cccc(CNCc2ccc3c(c2)OCO3)c1)C1CCN(Cc2ccccc2)CC1 | 1050 nM
4 | COc1cc(C(=O)NC2CCc3ccccc32)cc(Cl)c1OC (stereo not given) | 1100 nM
5 | CCOc1ccc2nccc([C@@H](O)[C@@H]3C[C@@H]4CCN3C[C@@H]4CC)c2c1 | 110 nM and 610 nM
6 | Cc1ccc(Nc2nc(NN=Cc3cccc([N+](=O)[O-])c3)nc(Nc3ccccc3)n2)c(C)c1 | 630 nM
7 | O=C(/C=C/c1ccc(Cl)cc1)NC1CCC(CN2CCC(c3c[nH]c4ccccc34)CC2)CC1 (stereo not given) | 800 nM and 730 nM
8 | CN1CCN(Cc2ccc(-c3ccc4c(Nc5ccc(Oc6ccccn6)cc5)ccnc4c3)o2)CC1 | 140 nM
9 | Cc1cc(N[C@@H](Cc2ccccc2)C(=O)NCc2cccc(F)c2)nc(NCCc2cccnc2)n1 | 1340 nM
10 | Cc1nc2ccc([N+](=O)[O-])cc2c(=O)n1OCc1ccccc1 | 210 nM
11 | Oc1ccc(Nc2nc(NCc3ccco3)c3ccccc3n2)cc1 | 670 nM
12 | COc1ccccc1CNC(=O)c1cc(OC)c(OC)cc1NC(=O)c1cccs1 | 1440 nM
13 | CC(C)CCCC(C)NC[C@@H](O)[C@H](Cc1ccccc1)NC(=O)c1cc(N2CCCC2=O)cc(N(c2ccccc2)S(C)(=O)=O)c1 (stereo not given in full) | 60 nM
14 | CCN(CC)CCNc1ccnc2ccc3ccccc3c12 | 220 nM
15 | O=C(/C=C/c1ccc(Cl)cc1)NCCCCCN1CCN(C(=O)C=Cc2ccc(Cl)c(Cl)c2)CC1 | 990 nM
16 | COc1ccc(Cl)cc1NC(=O)CN(C)C(=O)c1cnn(-c2ccccc2)n1 | 230 nM
17 | O=c1[nH]nc(-c2ccc(N3CCCC3)c([N+](=O)[O-])c2)c2ccccc12 | 630 nM
18 | Cc1nc2nc(N)nc(N)c2c(C)c1Cc1ccccc1Br | 60 nM
19 | O=C(C=Cc1cn(-c2ccccc2)nc1-c1cccs1)N1CCN(c2ccncc2)CC1 | 720 nM
20 | CC(=O)N1CCC(C(=O)Nc2ccc(-c3cccc(-c4nc5c(C)cccc5[nH]4)c3)cc2)CC1 | 310 nM
21 | COCCNCc1cccc(-c2ccc3c(Nc4ccc(Oc5cccnc5)cc4)ccnc3c2)c1 | 180 nM
22 | Cc1nc(NC2=NCN(CCCN3CCOCC3)CN2)nc2c(C)cccc12 | 1130 nM
23 | CCNc1cc(C(=O)N[C@@H](Cc2ccccc2)[C@H](O)CNC2(CC)CCCCC2)cc(N2CCCCS2(=O)=O)c1 | 270 nM
24 | O=C(NC1CC1)c1ccc(N2CCC(c3ccccc3)CC2)nc1 | 1110 nM

Row | Structure (SMILES) | IC50
25 | O=C(Nc1cccc(CN2CCN(Cc3ccc(O)cc3)CC2)c1)c1ccc(Cl)c(Cl)c1 | 250 nM
26 | N#Cc1c(-c2ccccc2)cn2c1[nH]c(=O)c1ccccc12 | 110 nM
27 | Cc1nc(C)n(CC(=O)Nc2cccc(-c3cccc(-c4nc5ccc(C(F)(F)F)cc5[nH]4)c3)c2)n1 | 760 nM
28 | COc1ccc(-n2nc(C(=O)NCc3ccccc3OC)c3ccccc3c2=O)cc1 | 220 nM
29 | COc1ccc(NC(=O)/C=C/c2ccc(Cl)c(C(F)(F)F)c2)cc1OCCN(C(C)C)C(C)C | 630 nM
30 | CCOC(=O)C1=C(C)NC2=C(C(=O)CCC2)C1c1cn(Cc2ccc(Cl)cc2Cl)nc1-c1ccccc1 (stereo not given) | 620 nM
31 | O=C(CCn1cncn1)N1CCCC(c2[nH]c3ccccc3c2-c2ccncc2)C1 (stereo not given) | 800 nM
32 | COc1cccc(CNC(=O)NC2CCN(c3ccnc(Nc4cc(OC)c(OC)c(OC)c4)n3)C2)c1 (stereo not given) | 710 nM
33 | CCNc1cc(C(=O)N[C@@H](Cc2ccccc2)[C@H](O)CNC2CCC(C)(C)CC2)cc(N2CCCCS2(=O)=O)c1 | 650 nM
34 | O=C(C=C1c2ccccc2-c2ccccc21)NC1CCC(CN2CCC(c3c[nH]c4ccccc34)CC2)CC1 (stereo not given) | 790 nM and 700 nM
35 | COc1ccc(C(=O)[C@H]2C[C@@H]2CN2CC=C(c3c[nH]c4ccccc34)CC2)cc1 | 530 nM
36 | CC(C)CCN1CCCN(Cc2cccc(NC(=O)c3cc4ccccc4s3)c2)CC1 | 920 nM
37 | Cc1cccc2[nH]c(-c3ccc(-c4ccc(CN5CCCCC5CO)cc4)cc3)nc12 (stereo not given) | 810 nM
38 | CCN(CC)C(=NC(N)=NCCCCCCN=C(N)N=C(Nc1ccc(Cl)cc1)N(CC)CC)Nc1ccc(Cl)cc1 | 930 nM
39 | CC(C)(CNCc1ccc(C(F)(F)F)cc1)c1nc(-c2ccc(Cl)c(O)c2)c(-c2ccncc2)[nH]1 | 730 nM
40 | COc1cccc(-c2ccc(C(=O)NC3CCN(Cc4ccc(C(C)(C)C)cc4)CC3)s2)c1 | 1600 nM
41 | CC(C)c1cccc(OCC2CCN(c3ncc(C(=O)NC4CC4)cc3Cl)CC2)c1 | 680 nM
42 | Cc1ccc(C)c(NC(=O)Nc2ccc(C)c(-c3ccc(C(=O)Nc4ccncc4)cc3)c2)c1 | 620 nM
43 | O=C(Nc1ccc(OC2CCN(Cc3ccc(F)cc3)CC2)c(Cl)c1)c1ccco1 | 300 nM
44 | COc1ccc(-c2cnc3ccc(NCc4ccc(F)cc4)nn23)cc1OC | 830 nM
45 | Cc1[nH]c(C)c(-c2ccc(Nc3ccc(C(F)(F)F)cn3)cc2)c(=O)c1Br | 30 nM
46 | COc1cc2c(cc1S(=O)(=O)c1ccc(COc3ccc(C(F)(F)F)cc3)cc1)CNCC2 | 750 nM
47 | CCCCc1ccc(S(=O)(=O)Nc2ccc3c(c2)CCN(Cc2c[nH]c4cnccc24)CC3)cc1 | 670 nM
48 | COc1ccc2nccc([C@@H](O)CN3CCC(c4cc(-c5ccc(Cl)cc5)n[nH]4)CC3)c2n1 | 740 nM

Row | Structure (SMILES) | IC50
49 | COc1ccc(-c2cccc(NC(=O)c3ccc(F)cc3)c2)cc1CN1CCCN(C)CC1 | 830 nM
50 | O=c1cc(NCCCNC2CCOc3c(I)cc(Cl)cc32)[nH]c2ccccc12 (stereo not given) | 830 nM
51 | COc1cccc(C2CCN(CCN3CCC(NC(=O)c4ccc(-c5ccc(C#N)cc5)cc4)CC3)CC2)c1 | 700 nM
52 | C=CC[C@H](C[C@H](O)[C@H](Cc1ccccc1)NC(=O)c1ccc(-n2cccn2)cc1)C(=O)NC1CCCCC1 | 810 nM
53 | O=C(Nc1ccc(Br)cc1)N(CCN1CCOCC1)CC(O)COc1ccc(Cl)c(F)c1 (stereo not given) | 1040 nM
54 | O=C(Nc1ccc(C(=O)OCC(c2ccccc2)c2ccccc2)cc1)N[C@@H](Cc1ccc(O)cc1)C(=O)NC1CCN(Cc2ccc(O)cc2)C1 (stereo not given in full) | 780 nM
55 | Cc1cccc2[nH]c(-c3ccc(-c4cccc(CN5CCN(CC6CCCN(C)C6)CC5)c4)s3)nc12 (stereo not given) | 120 nM
56 | CCCc1cc(NC2CCN(C)CC2)nc(Nc2ccc(F)cc2)n1 | 800 nM
57 | CN1C(C)(C)CC(NC(=O)c2ccc(-c3nc4ccc(Cl)cc4[nH]3)cc2)CC1(C)C | 990 nM
58 | Cc1ccc(NC(=O)c2cccc(N3CCN(c4ccncc4)CC3)c2)cc1F | 1300 nM
59 | O=C(Cc1ccc(Cl)cc1)Nc1cc(Cl)ccc1Cn1cnc(N2CCNCC2)cc1=O | 1000 nM
60 | COc1ccc(CNC(=O)c2cnc3cc(-c4c(C)noc4C)ccc3c2Nc2ccccc2C(C)(C)C)cc1 | 1300 nM
61 | CCOc1ccc(Br)cc1/C=C/C(=O)Nc1ccc(C2CCN(C)CC2)cc1 | 450 nM
62 | Cc1cccc2[nH]c(-c3cccc(-c4ccc(NC(=O)Nc5ccsc5)cc4)c3)nc12 | 120 nM
63 | CC(C)(C)N1CCC(N(Cc2ccc(-c3ccc(C(F)(F)F)cc3)cc2)C(=O)Cn2c(CCc3cccc(F)c3F)nc(=O)c3cccnc32)CC1 | 760 nM
64 | Cc1cc(N(C)C)nc(Nc2ccc(NC(=O)c3cccc(F)c3)cc2)n1 | 1000 nM
65 | O=C(Cc1ccc(NC(=O)c2ccc(O)c(-c3ccc(Cl)c(Cl)c3)c2)cc1)NCCN1CCCCC1 | 840 nM
66 | Fc1ccc2nc(-c3ccc(-c4ccc(CNCc5ccccc5)cc4)cc3)[nH]c2c1 | 280 nM
67 | CCn1c(-c2nonc2N)nc2cnc(Oc3cccc(NC(=O)c4ccc(OCCCN5CCCCC5)cc4)c3)cc21 | 930 nM
68 | COc1ccc2nccc([C@@H](O)CN3CCC(NC(=O)/C=C/c4cc(F)cc(NC(C)=O)c4)CC3)c2c1 | 180 nM
69 | Cc1ccccc1C1CCN(C2CCC(NC(=O)c3csc(-c4cccc(Cl)c4)n3)CC2)CC1 (stereo not given) | 1150 nM
70 | FC(F)(F)c1cccc(NC(=S)NN=Cc2ccccn2)c1 | 350 nM
71 | CN1CCC(NCc2ccc(-c3ccc(C(F)(F)F)cc3)cc2)CC1 | 800 nM
72 | c1cc(CN2CCN(c3ccncc3)CC2)cc(-c2ccc(-c3nc4ccccc4[nH]3)cc2)c1 | 150 nM

Row | Structure (SMILES) | IC50
73 | O=C(/C=C/c1cccc(Cl)c1)NC1CCC(CN2CCC(c3c[nH]c4ccccc34)CC2)CC1 (stereo not given) | 750 nM and 720 nM
74 | CC(C)(CN)c1nc(-c2ccc(Br)c(O)c2)c(-c2ccncc2)[nH]1 | 970 nM
75 | FC(F)(F)c1ccc2nc(-c3ccc(-c4cccc(CNCCc5ccncc5)c4)s3)[nH]c2c1 | 120 nM
76 | COc1ccc2nccc([C@@H](O)CN3CCC(NCc4ccc5c(c4)sc(=O)n5C)CC3)c2c1 | 260 nM
77 | N#Cc1cccc(NC(=O)c2ccc(S(=O)(=O)NCC3CCCN3CC3CCCCC3)cc2)c1 (stereo not given) | 1050 nM
78 | CCN(C)CCCn1c(N(C)C)nc2cc(-n3cnc4cc(-c5ccc(Cl)cc5)sc4c3=O)ccc21 | 1090 nM
79 | CCCCCCCC1CC(CC(=O)Nc2ccnc3ccc(OC)cc23)CN1C(=O)OC(C)(C)C (stereo not given) | 710 nM
80 | COc1cc(CN2CCN(c3ccnc(N(C)C4CCN(C)CC4)n3)CC2)cc(Cl)c1O | 780 nM
81 | Cc1cc(C)c(C(=O)Nc2ccc3nc(C)cc(N)c3c2)c(C)c1 | 1090 nM
82 | c1ccc(CNCc2cccc(-c3csc(-c4nc5ccccc5[nH]4)c3)c2)cc1 | 460 nM
83 | COc1ccc(NC(=O)[C@H](CC(C)C)Nc2ccnc(Nc3ccccc3)n2)cc1 | 1570 nM
84 | N#Cc1ccc(-c2ccc(C(=O)NCCCCN3CCC(n4cnc5ccccc54)CC3)cc2)cc1 | 910 nM
85 | Cc1cccc2[nH]c(-c3cc(-c4cccc(Cl)c4)cnc3N)nc12 | 120 nM
86 | Nc1ccnc(N2CCC(CCOc3ccnc4cc(Cl)ccc34)CC2)c1 | 1160 nM
87 | O=C(Nc1ccc(NC2=NCCN2)cc1)c1ccc(C(=O)Nc2ccc(NC3=NCCN3)cc2)cc1 | 650 nM
88 | COc1ccc(Cn2c(Nc3cccc(C(F)(F)F)c3)nc3cc(C(=O)NCCN4CCCC4)ccc32)cc1Cl | 830 nM
89 | Cc1c(Cn2ncc(N3CCC(N)CC3)c(Cl)c2=O)cccc1NC(=O)Nc1ccc(-c2ccccc2)cc1 | 700 nM
90 | CN(C)c1cc(NC(=O)Nc2ccc(SC(F)(F)F)cc2)c2ccccc2n1 | 140 nM
91 | O=C(NC1CCCc2ccccc21)C1CCCN(C(=O)c2ccc(O)c(-c3ccc(Cl)c(Cl)c3)c2)C1 (stereo not given) | 1140 nM
92 | Cc1ccc(S(=O)(=O)Nc2ccc(Nc3nccc(Nc4cccc5[nH]ncc45)n3)cc2)cc1 | 960 nM
93 | Cc1cccc(C(=O)Nc2ccnc(N3CCC(N(C)Cc4cccc(O)c4)CC3)c2)c1 | 920 nM
94 | CN(C)Cc1ccc2nc(-c3cccc(Cc4cc(Cl)ccc4OCc4ccc(Cl)cc4F)n3)[nH]c2c1 | 1130 nM
95 | CN1CCN(CCCN(Cc2ccc(-c3ccc(CNCc4ccc5c(c4)OCO5)cc3)cc2)C(=O)CCC2CCCC2)CC1 | 950 nM
